Where two headings read alike, the source gives them in different places.
Experiments:
[1] = Bacterial membrane permeabilization assay (carboxyfluorescein leakage from liposomes); type: biochemical, Escherichia coli; conditions: E. coli polar lipid extract liposomes, 10 µM lipid, Tris 10 mM pH 7.4, 45 min, carboxyfluorescein fluorescence; EC50 fixed at 50% of maximum leakage (Triton X-100); mean of four experiments; read-out: EC50 liposome leakage
Protocol: Liposomes were manufactured and permeabilization-assayed as described previously. Briefly, lipid films of Escherichia coli polar lipid extract were deposited on round-bottom flask walls. The lipid films were re-suspended at 55 °C in an aqueous solution of 100 mM of 5(6)-carboxyfluorescein in Tris buffer. The suspensions were subjected to repeated extrusion through a 100 nm polycarbonate membrane in order to reduce multilamellar structures and polydispersity. Un-trapped carboxyfluorescein was removed by gel filtration. Membrane permeability was measured by monitoring carboxyfluorescein efflux from the liposomes to the external low-concentration environment, resulting in a loss of self-quenching and an increased fluorescence signal. The 96-well plates were prepared with a 2-fold serial dilution of the peptides in Tris buffer (10 mM, pH 7.4), and controls without peptides (background) and 0.16% Triton X-100 (maximum leakage). The plates were administered a liposome solution to a final lipid concentration of 10 μM in 200 µL. The effects of each peptide concentration on the liposomes were monitored for 45 min, at which point the initial leakage had largely subsided. The results shown represent the mean from four experiments (one for 3624 Da) with standard deviations and are expressed as the percent of total leakage generated with Triton X-100 and subtraction of the baseline value. […]

[2] = previous experiments; read-out: EC50 liposome leakage, previous experiments; cited from earlier work
Protocol: The ability of the Parborlasia peptides to permeabilize reconstituted E. coli phospholipid membranes was tested in a liposome-based assay. The peptides display the typical steep logarithmic AMP leakage kinetic (Figure 8). […] The 3624 Da peptide was tested in a single experiment series in this assay. The 26-residue long bee venom peptide melittin was used as a reference ...

Melittin
EC50 [1]: 0.3 µM | EC50 [2]: 0.4 µM

Source: paper PMC11126048, “Peptide Toxins from Antarctica: The Nemertean Predator and Scavenger Parborlasia corrugatus (McIntosh, 1876)” (Toxins, 2024)
